In US11149008B2, “Sulfamide derivatives and preparation method and use thereof” (HitGen Ltd., priority 2015, dated 2021) one finds EC50 and IC50 data, which are given here for four compounds.

Structures are written as SMILES. Some results are limits rather than exact numbers.

Assay [1] concerns HepG2 cells. As to the kind of experiment: Cell growth inhibition measurement (CCK-8), HepG2. The assay is classed as cell-based. To be noted: Homo sapiens, HepG2, 72 h, highest EC50 measured during one or multiple operations, read-out: Inhibition activity against cancer cells, HepG2 (EC50). The source says:
(§1) A HepG2 cell strain and an HCT-116 cell strain were purchased from Shanghai Institutes for Biological Sciences; a DMEM high-sugar culture medium and an MEM culture medium were purchased from Hyclone; fetal calf serum was purchased from Gibco; trypsin was purchased from Invitrogen Shanghai; a CCK-8 kit was purchased from Beyotime Institute of Biotechnology; and, the remaining cell culture mediums and other consumables were purchased from Corning China.
(§2) HepG2 cells and HCT-116 cells in the logarithmic growth phase were digested by trypsin. After the counting of uniform cell suspension, the cell density was adjusted as 1500 cells/well by a culture medium containing 10% serum. The cells were re-inoculated to a 96-well cell culture plate, and cultured to a volume of 200 μL at 37° C. in an incubator containing 5% CO2. The cells could be tested after being cultured for 24 h.
(§3) The cells cultured for 24 h were taken out from the incubator. The culture liquid in the well plate was sucked out, and 200 μL of compound solution prepared in the culture medium containing 10% fetal calf serum was added in each well. Five parallel mediums were provided for each concentration, and a DMSO culture medium was used as negative control. The culture mediums were cultured for 72 h at 37° C. in an incubator containing 5% CO2, and CCK-8 detection was performed.
(§4) A serum-free culture medium and CCK-8 solution were prepared, and CCK-8 working solution was prepared at a ratio of 10:1 (this process should be performed in dark place).
(§5) The cells cultured for 72 h were taken out from the incubator. The culture liquid in the well plate was sucked out, and 120 μL of the CCK-8 working solution was added in each well. A well plate without cells was also added with 120 μL of the CCK-8 working solution to serve as blank control. The well plates were cultured for 1 h at 37° C. in an incubator containing 5% CO2 (this process should be performed in dark place).
(§6) The well plates were taken out from the incubator, 100 μL of solution in each well was sucked out and added in a new 96-well plate, and the absorbance was measured at 450 nm (this process should be performed in dark place).
(§7) where Tx is the absorbance of the CCK-8 after the compound acts for 72 h;
(§8) C is the absorbance of the CCK-8 after the negative control wells are cultured for 72 h; and
(§9) B is the absorbance of the CCK-8 in the blank control wells.
(§10) The test results of the compounds prepared according to the embodiments during the measurement are shown in Table 3, wherein the measured highest EC50 of the compounds during one operation or multiple operations is classified according to the following description: […]

Assay [2] deals with T1, HDAC 6 (Homo sapiens, UniProt Q9UBN7).
T1 construct: purchased BPS Bioscience #50076
T1 sequence (Q9UBN7 1-1215): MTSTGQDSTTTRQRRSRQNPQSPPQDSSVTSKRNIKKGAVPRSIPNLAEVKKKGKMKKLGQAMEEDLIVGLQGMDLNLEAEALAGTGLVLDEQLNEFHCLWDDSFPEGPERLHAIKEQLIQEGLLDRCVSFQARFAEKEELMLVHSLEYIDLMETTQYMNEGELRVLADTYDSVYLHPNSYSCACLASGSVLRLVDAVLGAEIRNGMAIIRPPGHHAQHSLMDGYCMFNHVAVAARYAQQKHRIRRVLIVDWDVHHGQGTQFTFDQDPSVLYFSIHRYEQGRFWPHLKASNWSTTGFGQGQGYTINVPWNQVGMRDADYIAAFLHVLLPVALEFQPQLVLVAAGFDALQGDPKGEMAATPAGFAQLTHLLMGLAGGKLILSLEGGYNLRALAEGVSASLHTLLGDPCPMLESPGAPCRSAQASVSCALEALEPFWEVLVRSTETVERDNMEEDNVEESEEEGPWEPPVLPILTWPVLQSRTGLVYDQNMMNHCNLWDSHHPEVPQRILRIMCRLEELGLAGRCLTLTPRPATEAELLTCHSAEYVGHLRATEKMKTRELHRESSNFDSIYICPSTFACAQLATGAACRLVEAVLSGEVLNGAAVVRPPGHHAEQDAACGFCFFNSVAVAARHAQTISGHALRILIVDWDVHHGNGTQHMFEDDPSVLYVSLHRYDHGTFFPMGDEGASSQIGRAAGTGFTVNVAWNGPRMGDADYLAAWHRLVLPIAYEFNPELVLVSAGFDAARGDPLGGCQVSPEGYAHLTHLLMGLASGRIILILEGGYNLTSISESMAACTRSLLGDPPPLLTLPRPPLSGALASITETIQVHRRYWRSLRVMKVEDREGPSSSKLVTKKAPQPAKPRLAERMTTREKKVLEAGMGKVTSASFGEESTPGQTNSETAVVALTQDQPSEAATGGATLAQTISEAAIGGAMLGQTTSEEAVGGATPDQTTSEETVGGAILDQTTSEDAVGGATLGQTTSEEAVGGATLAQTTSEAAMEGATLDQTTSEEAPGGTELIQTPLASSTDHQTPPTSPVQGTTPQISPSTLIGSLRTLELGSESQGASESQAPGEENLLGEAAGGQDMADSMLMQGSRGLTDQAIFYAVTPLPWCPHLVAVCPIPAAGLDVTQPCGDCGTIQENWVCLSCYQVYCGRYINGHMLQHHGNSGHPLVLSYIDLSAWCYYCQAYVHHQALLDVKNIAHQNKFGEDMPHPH
As to the kind of experiment: Enzyme activity detection of histone deacetylase 6 (fluorogenic substrate deacetylation). In kind it is biochemical. To be noted: 0.35 ng/μL HDAC 6, 20 μM substrate, 30 min at 37° C.; IC50 class. The source says:
(§11) During the deacetylation detection of a substrate, the HDAC inhibition activity of the compound of the present invention was detected.
A: Enzyme Activity Detection of Histone Deacetylase 6 (#50076, BPS Bioscience)
(§12) Acetyl on the substrate was removed by the HDAC 6, so that the substrate was activated, and the developing liquid added subsequently could act on the substrate to release the fluorescent group. The size of the fluorescence signal reflected the activity of the HDAC 6. The IC50 detection method for this enzyme was disclosed in Chuping Xu, Elisabetta Soragni Improved Histone Deacetylase Inhibitors as Therapeutics for the Neurdegenerative Disease Friedreich's Ataxia: A New Synthetic Route. The total reaction system (100 μL/well) contained 0.35 ng/μL of HDAC 6, 20 μM of the substrate and the compound in different concentrations. The reaction system was incubated for 30 min at 37° C., and the fluorescence signal was then measured. The inhibition effect of the compound was determined from the obtained data, a concentration response curve was obtained by using the inhibition effect and the concentration of the compound, and the value of IC50 was fitted according to a four-parameter model.
(§13) The activities of the compounds prepared in the embodiments against the histone deacetylases 1, 3 and 6 (i.e., HDAC 1, HDAC 3 and HDAC 6) were detected by the above methods, and the test results were shown in Table 2, where the measurements of IC50 of the compounds were classified according to the following description: […]

Assay [3] has as its target T2, HDAC 3 (Homo sapiens, UniProt O15379).
T2 construct: purchased BPS Bioscience #50003
As to the kind of experiment: Enzyme activity detection of histone deacetylase 3 (fluorogenic substrate deacetylation). The assay is classed as biochemical. To be noted: 0.16 ng/μL HDAC 3, 10 μM substrate; IC50 class.
Text: as §11
B: Enzyme Activity Detection of Histone Deacetylase 3 (#50003, BPS Bioscience)
as §12, with “3,” for “6,”, “3.” for “6.”, “0.16” for “0.35”, “3, 10” for “6, 20”, “The” for “The reaction system was incubated for 30 min at 37° C., and the”, “detected online at Ex/Em=360/460.” for “then measured.”
as §13

For assay [4], the target named is HDAC 1 (Homo sapiens, UniProt Q13547). Briefly: Enzyme activity detection of histone deacetylase 1 (fluorogenic substrate deacetylation). The assay is classed as biochemical. To be noted: 0.28 ng/μL HDAC 1, 10 μM substrate; IC50 class.
Sequence of HDAC 1 (Q13547 whole entry, species assumed): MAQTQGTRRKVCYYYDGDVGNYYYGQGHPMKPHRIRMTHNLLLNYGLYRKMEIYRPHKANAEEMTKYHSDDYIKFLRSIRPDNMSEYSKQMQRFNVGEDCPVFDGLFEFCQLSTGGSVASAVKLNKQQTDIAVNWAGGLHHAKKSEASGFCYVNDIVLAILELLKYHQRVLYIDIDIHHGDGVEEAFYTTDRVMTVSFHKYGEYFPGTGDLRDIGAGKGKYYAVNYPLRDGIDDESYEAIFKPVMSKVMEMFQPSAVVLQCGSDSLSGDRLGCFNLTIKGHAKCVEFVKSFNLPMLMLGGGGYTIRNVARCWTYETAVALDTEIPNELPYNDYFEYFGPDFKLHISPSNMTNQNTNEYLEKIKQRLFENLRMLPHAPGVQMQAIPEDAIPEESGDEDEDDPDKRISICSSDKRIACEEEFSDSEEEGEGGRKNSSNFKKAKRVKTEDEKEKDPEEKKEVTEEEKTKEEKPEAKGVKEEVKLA
Text: as §11
C: Enzyme Activity Detection of Histone Deacetylase 1
as §12, with “1,” for “6,”, “1.” for “6.”, “0.28” for “0.35”, “1, 10” for “6, 20”, “The” for “The reaction system was incubated for 30 min at 37° C., and the”, “detected online at Ex/Em=360/460.” for “then measured.”
as §13

The test system of assay [5] is HCT-116 cells. Briefly: Cell growth inhibition measurement (CCK-8), HCT-116. The assay is classed as cell-based. To be noted: Homo sapiens, HCT-116, 72 h, highest EC50 measured during one or multiple operations, read-out: Inhibition activity against cancer cells, HCT-116 (EC50).
Text: as §1, §2, §3, §4, §5, §6, §7, §8, §9, §10

T2 sequence (O15379 whole entry): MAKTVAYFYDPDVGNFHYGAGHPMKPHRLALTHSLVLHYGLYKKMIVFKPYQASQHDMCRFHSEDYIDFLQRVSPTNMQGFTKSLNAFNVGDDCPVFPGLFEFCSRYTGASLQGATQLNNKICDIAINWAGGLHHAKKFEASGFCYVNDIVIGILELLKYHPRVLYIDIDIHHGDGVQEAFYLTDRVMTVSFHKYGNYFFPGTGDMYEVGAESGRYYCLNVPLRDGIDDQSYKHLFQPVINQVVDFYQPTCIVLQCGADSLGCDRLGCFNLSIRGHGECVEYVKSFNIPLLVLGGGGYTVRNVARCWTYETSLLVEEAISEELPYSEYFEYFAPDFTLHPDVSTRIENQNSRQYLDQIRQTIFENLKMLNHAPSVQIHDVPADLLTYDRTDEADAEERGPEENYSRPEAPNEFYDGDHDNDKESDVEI
T2 sequence (Q9Y618 395-489 partner limits assumed): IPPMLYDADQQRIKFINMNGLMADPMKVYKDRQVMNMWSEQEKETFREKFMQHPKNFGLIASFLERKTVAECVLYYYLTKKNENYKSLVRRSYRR

Turning to `O=C(NO)C1=CCN(S(=O)(=O)c2ccc(-c3ccc(O)cc3)cc2)CC1` [Compound 2, N-hydroxyl-1-((4′-hydroxyl-[1,1′-biphenyl]-4-yl)sulfonyl)-1,2,3,6-tetrahydropyridine-4-formamide], the EC50 in assay [1] was below 100 nM. Moreover, the IC50 is below 100 nM in assay [2] and 100 to 500 nM in assay [3].

On to `O=C(NO)C1=CCN(S(=O)(=O)c2ccc(-c3cnn(C4CCNCC4)c3)cc2)CC1` [Compound 1, N-hydroxyl-1-((4-(1-(piperidine-4-yl)-1H-pyrazol-4-yl)phenyl)sulfonyl)-1,2,3,6-tetrahydropyridine-4-formamide], for which, in assay [1], the EC50 is above 100 nM. For the same compound, the values for the IC50 in assay [2] and in assay [3] were below 100 nM and 100 to 500 nM, respectively.

On to `CN1CCN(c2ccc(-c3ccc(S(=O)(=O)N4CCC=C(C(=O)NO)CC4)cc3)cc2)CC1` [Compound 44, N-hydroxyl-1-((4′-(4-methylpiperazine-1-yl)-[1,1′-biphenyl]-4-yl)sulfonyl)-2,3,6,7-tetrahydro-1H-aza-4-formamide], for which the IC50 in assay [4] is 100 to 500 nM; in assay [2], below 100 nM; in assay [3] it was 100 to 500 nM. Besides, in assay [1], the EC50 was above 100 nM.

`O=C(NO)C1=CCN(S(=O)(=O)c2ccc(-c3ccc(CN4CCCCC4)cc3)cc2)CC1` [Compound 19, N-hydroxyl-1-((4′-(piperidine-1-ylmethyl)-[1,1′-biphenyl]-4-yl)sulfonyl)-1,2,3,6-tetrahydropyridine-4-formamide]: the EC50 in assay [5] and in assay [1] was below 100 nM in each case. In addition, the IC50 in assay [4] and in assay [2] was below 100 nM throughout.
